Laboratory results: ChEMBL document CHEMBL1201862, “PubChem BioAssay data set” (2004)
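Results reflect a 48-hour exposure of cells in 96-well plates to compound at five concentrations. GI50: concentration for 50% inhibition of growth.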 Calls of active or inactive are those of the source. Rule as the data show it: active = GI50 up to about 1.1 µM and inactive = higher.

Assays:
Assay in all cases: NCI anticancer screen, dose series, 48 h
HCC 2998 = system: HCC 2998
HT-29 = system: HT-29
T47D = system: T47D
NCI-H226 = system: NCI-H226
OVCAR-5 = system: OVCAR-5
A549 = system: A549
RPMI-8226 = system: RPMI-8226
SR = system: SR
HOP-62 = system: HOP-62
SK-MEL-5 = system: SK-MEL-5
K562 = system: K562
HOP-92 = system: HOP-92
CCRF-CEM = system: CCRF-CEM
ACHN = system: ACHN
RXF 393 = system: RXF 393
CAKI-1 = system: CAKI-1
HCT-15 = system: HCT-15
SF-268 = system: SF-268
SK-OV-3 = system: SK-OV-3
MDA-MB-435 = system: MDA-MB-435

| SMILES | GI50 (HCC 2998) | GI50 (HT-29) | GI50 (T47D) | GI50 (NCI-H226) | GI50 (OVCAR-5) | GI50 (A549) | GI50 (RPMI-8226) | GI50 (SR) | GI50 (HOP-62) | GI50 (SK-MEL-5) | GI50 (K562) | GI50 (HOP-92) | GI50 (CCRF-CEM) | GI50 (ACHN) | GI50 (RXF 393) | GI50 (CAKI-1) | GI50 (HCT-15) [µM] | GI50 (SF-268) | GI50 (SK-OV-3) | GI50 (MDA-MB-435) |
| --- | --- | --- | --- | --- | --- | --- | --- | --- | --- | --- | --- | --- | --- | --- | --- | --- | --- | --- | --- | --- |
| COC(=O)C(Cc1c[nH]c2ccccc12)NC(=O)C(Cc1c[nH]cn1)NC(=O)C1CCC(=O)N1C(=O)OCc1ccccc1 (centres undefined) | > 100 µM (inactive) | > 100 µM (inactive) | 5.13 µM (inactive) | > 100 µM (inactive) | > 100 µM (inactive) | > 100 µM (inactive) | > 100 µM (inactive) | > 100 µM (inactive) | > 100 µM (inactive) | > 100 µM (inactive) | > 100 µM (inactive) | > 100 µM (inactive) | > 100 µM (inactive) | > 100 µM (inactive) | > 100 µM (inactive) |  |  |  |  |  |
| O=C(O)CCC(NC(=O)c1ccccc1)C(=O)O (centres undefined) | > 100 µM (inactive) | > 100 µM (inactive) |  |  | > 100 µM (inactive) | > 100 µM (inactive) | > 100 µM (inactive) | > 100 µM (inactive) | > 100 µM (inactive) | > 100 µM (inactive) | > 100 µM (inactive) | > 100 µM (inactive) | > 100 µM (inactive) | > 100 µM (inactive) | > 100 µM (inactive) | > 100 µM (inactive) | > 100 | > 100 µM (inactive) | > 100 µM (inactive) |  |
| COC(=O)C(CC1=C(O)Nc2ccccc2N1)/C(=N/NC(N)=O)C(=O)Nc1ccccc1C (centres undefined) | > 100 µM (inactive) | 66.5 µM (inactive) |  | > 100 µM (inactive) | > 100 µM (inactive) | > 100 µM (inactive) | 21 µM (inactive) | 20.8 µM (inactive) | > 100 µM (inactive) | 93.5 µM (inactive) | 97.7 µM (inactive) | 44 µM (inactive) | 21.7 µM (inactive) | > 100 µM (inactive) | 38.5 µM (inactive) | > 100 µM (inactive) | 16.6 | 16.5 µM (inactive) | > 100 µM (inactive) |  |
| Cc1cc(C)n2nc3nc(N)c(C#N)c(-c4ccccc4)c3c2n1 | > 100 µM (inactive) | > 100 µM (inactive) |  | > 78.5 µM (inactive) | > 100 µM (inactive) | > 100 µM (inactive) | > 100 µM (inactive) | > 100 µM (inactive) | > 100 µM (inactive) | > 80.2 µM (inactive) | > 100 µM (inactive) | > 100 µM (inactive) | > 100 µM (inactive) | > 100 µM (inactive) | > 100 µM (inactive) | > 100 µM (inactive) | > 100 | > 100 µM (inactive) | > 100 µM (inactive) | > 100 µM (inactive) |
| O=c1cc(/N=N/c2ccc(O)cc2)[nH]c(=O)[nH]1 | 29.7 µM (inactive) | 67.8 µM (inactive) |  | > 100 µM (inactive) | > 100 µM (inactive) | > 100 µM (inactive) | > 100 µM (inactive) | > 100 µM (inactive) | 62.8 µM (inactive) | > 100 µM (inactive) | > 100 µM (inactive) | 96.6 µM (inactive) |  | > 100 µM (inactive) | 42.1 µM (inactive) | > 100 µM (inactive) | > 100 | 40.5 µM (inactive) | > 100 µM (inactive) | > 100 µM (inactive) |
| COC(=O)C1C2CC3C(OC(=O)C31)C2OC(=O)[C@](OC)(c1ccccc1)C(F)(F)F (some centres undefined) | > 100 µM (inactive) | > 100 µM (inactive) |  | > 100 µM (inactive) | > 100 µM (inactive) | > 100 µM (inactive) | > 100 µM (inactive) | > 100 µM (inactive) | > 100 µM (inactive) | > 100 µM (inactive) | > 100 µM (inactive) | > 100 µM (inactive) | > 100 µM (inactive) | > 100 µM (inactive) | > 100 µM (inactive) | > 100 µM (inactive) | > 100 | > 100 µM (inactive) | > 100 µM (inactive) |  |
| CCN(CC)CCCN1CCc2c([nH]c3ccccc23)C1c1cccnc1 (centres undefined) | > 100 µM (inactive) | > 100 µM (inactive) |  | > 100 µM (inactive) | > 100 µM (inactive) | > 100 µM (inactive) | > 100 µM (inactive) | > 100 µM (inactive) | > 100 µM (inactive) | 59.8 µM (inactive) | > 100 µM (inactive) | 29.2 µM (inactive) | > 100 µM (inactive) | > 100 µM (inactive) | > 100 µM (inactive) | > 100 µM (inactive) | > 100 |  | > 100 µM (inactive) |  |
| CCOC(=O)N1c2c(c3ccccc3n2C(=O)OCC)C(=O)C(OC)N1C(=O)OCC (centres undefined) | 33.3 µM (inactive) | 30.5 µM (inactive) |  | 36.1 µM (inactive) | 42 µM (inactive) | 32.7 µM (inactive) | 23.9 µM (inactive) | 16.9 µM (inactive) | 22 µM (inactive) | 21.8 µM (inactive) | 21.1 µM (inactive) | 31.3 µM (inactive) | 19.5 µM (inactive) | 25.6 µM (inactive) |  | 28.8 µM (inactive) | 27.7 |  | 28.4 µM (inactive) | 32.1 µM (inactive) |
